ChEMBL document CHEMBL5584232, “Hijacking monopolar spindle 1 (MPS1) for various cancer types by small molecular inhibitors: Deep insights from a decade of research and patents” (Eur J Med Chem, 2024)
Each block holds one molecule with its values, some of them ahead of it.

How the values were obtained:
[1] = molecular target: Mitogen-activated protein kinase 8 (Homo sapiens, UniProt P45983); test: Inhibition of JNK1 (unknown origin) using ATF2 as substrate after 1 hr by Lanthascreen TR-FRET assay
Chain of Mitogen-activated protein kinase 8 (P45983 whole entry): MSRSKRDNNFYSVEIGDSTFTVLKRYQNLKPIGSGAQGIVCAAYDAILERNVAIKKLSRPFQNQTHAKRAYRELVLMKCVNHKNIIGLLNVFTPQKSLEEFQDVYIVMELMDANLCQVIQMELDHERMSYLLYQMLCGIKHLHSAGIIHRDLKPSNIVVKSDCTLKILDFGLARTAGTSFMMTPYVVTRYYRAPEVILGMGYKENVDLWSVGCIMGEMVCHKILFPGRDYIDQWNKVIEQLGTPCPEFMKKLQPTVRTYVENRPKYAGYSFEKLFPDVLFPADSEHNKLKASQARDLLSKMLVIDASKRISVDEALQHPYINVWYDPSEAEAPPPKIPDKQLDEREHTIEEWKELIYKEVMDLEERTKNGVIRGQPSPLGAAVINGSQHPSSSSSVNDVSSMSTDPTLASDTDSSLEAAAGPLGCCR

A549 [2] = test: Antiproliferative activity against human A549 cells assessed as reduction in cell growth incubated for 48 hrs by MTT assay; type: functional, cell-based; conditions: A549, 48 h
[3] = Oral bioavailability in rat at 1 mg/kg; type: ADME, organism-based; conditions: in vivo
[4] = Clearance in Sprague-Dawley rat at 1 mg/kg, iv measured after 24 hrs by LC-MS/MS analysis; type: ADME, organism-based; conditions: in vivo
[5] = Clearance in rat at 1 mg/kg, po; type: ADME, organism-based; conditions: in vivo
HCT-116 [6] = test: Antitumor activity against human HCT-116 cells xenografted in athymic nude BALB/c mouse assessed as reduction in tumor growth at 12.5 mg/kg, ip administered every other day and measured every other day for 16 days; type: functional; conditions: HCT-116, 384 h, time 16 day, read-out: TGI
CYP450 = CYP450 (Homo sapiens, UniProt P04798+P05177+P05181+P08684+P10632+P10635+P11509+P11712+P13584+P20813+P20815+P20853+P24462+P24903+P33260+P33261+P51589+P78329+P98187+Q02928+Q08477+Q16678+Q16696+Q5TCH4+Q6VVX0+Q7Z449+Q8TAV3+Q96SQ9+Q9HB55); test: Inhibition of CYP450 (unknown origin); type: ADME, protein assay
MDA-MB-468 = test: Growth inhibition of human MDA-MB-468 cells incubated for 48 hrs by SRB assay; type: functional
HCT-116 [7] = test: Growth inhibition of human HCT-116 cells incubated for 48 hrs by SRB assay; type: functional
A549 [8] = test: Growth inhibition of human A549 cells incubated for 48 hrs by SRB assay; type: functional
CAL-51 = test: Antiproliferative activity against human CAL-51 cells assessed as inhibition of cell growth incubated for 72 hrs by MTT assay; type: functional, cell-based; conditions: CAL-51, 72 h
[9] = molecular target: T1, Dual specificity protein kinase TTK (Homo sapiens, UniProt P33981); test: Inhibition of human recombinant TTK expressed in Escherichia coli Rossetta 2 (DE3) incubated for 1 hr by TR-FRET assay
T1 sequence (P33981 whole entry): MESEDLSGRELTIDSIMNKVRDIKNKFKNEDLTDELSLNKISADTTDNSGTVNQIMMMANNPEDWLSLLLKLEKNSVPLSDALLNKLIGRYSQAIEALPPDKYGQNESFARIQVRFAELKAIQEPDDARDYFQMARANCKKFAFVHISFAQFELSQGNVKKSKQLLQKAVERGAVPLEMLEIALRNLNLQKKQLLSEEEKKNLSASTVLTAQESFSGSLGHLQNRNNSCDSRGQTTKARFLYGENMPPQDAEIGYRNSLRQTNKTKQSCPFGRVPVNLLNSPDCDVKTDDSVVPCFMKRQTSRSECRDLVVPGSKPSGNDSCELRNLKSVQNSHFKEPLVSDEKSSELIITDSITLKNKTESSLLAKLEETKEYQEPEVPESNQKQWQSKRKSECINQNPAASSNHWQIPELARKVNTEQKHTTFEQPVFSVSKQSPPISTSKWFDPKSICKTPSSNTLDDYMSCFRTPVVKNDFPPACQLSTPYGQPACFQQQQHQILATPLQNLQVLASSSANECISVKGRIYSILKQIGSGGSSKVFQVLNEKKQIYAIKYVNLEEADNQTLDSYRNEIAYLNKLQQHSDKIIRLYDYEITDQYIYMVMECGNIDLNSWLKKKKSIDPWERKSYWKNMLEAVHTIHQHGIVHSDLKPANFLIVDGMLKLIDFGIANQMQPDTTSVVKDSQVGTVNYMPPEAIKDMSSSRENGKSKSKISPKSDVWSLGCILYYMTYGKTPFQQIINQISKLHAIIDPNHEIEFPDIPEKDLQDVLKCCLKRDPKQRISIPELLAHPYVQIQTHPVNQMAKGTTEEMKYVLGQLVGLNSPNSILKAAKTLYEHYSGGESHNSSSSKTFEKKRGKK

IC50 [1]: 150 nM
SMILES: CCOc1ccc2[nH]nc(-c3cccc(NC(C)=O)c3)c2c1

IC50 (A549 [2]): 386 nM
SMILES: CCOc1cc2c(-c3cccc(S(N)(=O)=O)c3)n[nH]c2cc1-c1cn[nH]c1

IC50 (A549 [2]): 386 nM
SMILES: CCOc1cc2c(-c3cccc(S(N)(=O)=O)c3)n[nH]c2cc1-c1cnn(C)c1

IC50 (A549 [2]): 386 nM
SMILES: CCOc1cc2c(-c3ccc(C)c(S(N)(=O)=O)c3)n[nH]c2cc1-c1cnn(C)c1

bioavailability [3]: 17%
SMILES: Cn1cc(-c2cc3[nH]nc(-c4cccc(S(N)(=O)=O)c4)c3cc2OC2CCCCC2)cn1

clearance [4]: 33 mL/min/kg
SMILES: Cn1cc(-c2cc3[nH]nc(-c4cccc(S(N)(=O)=O)c4)c3cc2NC2CCCCC2)cn1

IC50 (CYP450): 700 nM
SMILES: CCc1ccccc1C(C(=O)Nc1ccc2[nH]nc(-c3cccc(S(N)(=O)=O)c3)c2c1)N(C)C (stereo not given)
inhibition in vivo at 12.5 mg/kg (HCT-116 [6]): 10%

IC50 (CYP450): 900 nM | GI50 (MDA-MB-468): 70 nM | GI50 (HCT-116 [7]): 100 nM | GI50 (A549 [8]): 100 nM
SMILES: NS(=O)(=O)c1cccc(-c2n[nH]c3ccc(NC(=O)C(c4ccsc4)N4CCCC4)cc23)c1 (stereo not given)
inhibition in vivo at 12.5 mg/kg (HCT-116 [6]): 66%

More lines, now with the values behind:

SMILES: CCOc1ccc2[nH]nc(-c3ccc(NC(C)=O)cc3)c2c1
IC50 [1]: 28 nM

SMILES: CC(=O)Nc1cccc(-c2n[nH]c3cc(-c4cnn(C)c4)c(NC4CCCCC4)cc23)c1
CL/F [5]: 33 mL/min/kg

SMILES: CNC(=O)c1ccc(Nc2nc(OC3CCCC3)c3c(-c4cc[nH]n4)c[nH]c3n2)c(OC)c1
IC50 (CAL-51): 400 nM

SMILES: COc1cc(C(=O)NC(C)(C)CO)ccc1Nc1nc(OC2CCCC2)c2c(-c3ccc4nc(C)oc4c3)c[nH]c2n1
IC50 (CAL-51): 100 nM

SMILES: COc1cc(C(=O)NCC(C)(C)O)ccc1Nc1nc(OC2CCCC2)c2c(-c3ccc4nc(C)oc4c3)c[nH]c2n1
IC50 (CAL-51): 60 nM

SMILES: CNC(=O)c1ccc(Nc2nc(O[C@H]3CCOC3)c3c(-c4ccc5nc(C)oc5c4)c[nH]c3n2)c(OC)c1
IC50 (CAL-51): 18 nM

SMILES: COc1cc(N2CCC(O)CC2)ccc1Nc1nc(Nc2ccccc2S(=O)(=O)C(C)C)c2nc[nH]c2n1
IC50 [9]: 15 nM
